Patent US12180194B2, “Multi-aziridine compound” (Covestro (Netherlands) B.V., priority 2018, dated 2024)

Tests used:
[1] = tested on: Rtkn-GFP; test: ToxTracker genotoxicity assay, Rtkn-GFP reporter induction; settings: for Genotoxicity test, With S9 rat liver extract, Rtkn, 10 / Genotoxicity test, Without S9 rat liver extract, Rtkn, 10: GFP induction vs vehicle at 10% cytotoxicity; for Genotoxicity test, With S9 rat liver extract, Rtkn, 10 / Genotoxicity test, With S9 rat liver extract, Rtkn, 25 / Genotoxicity test, With S9 rat liver extract, Rtkn, 50: 3 h exposure with S9, 24 h recovery; for Genotoxicity test, Without S9 rat liver extract, Rtkn, 10 / Genotoxicity test, Without S9 rat liver extract, Rtkn, 25 / Genotoxicity test, Without S9 rat liver extract, Rtkn, 50: 24 h exposure, no S9; for Genotoxicity test, With S9 rat liver extract, Rtkn, 25 / Genotoxicity test, Without S9 rat liver extract, Rtkn, 25: GFP induction vs vehicle at 25% cytotoxicity; for Genotoxicity test, With S9 rat liver extract, Rtkn, 50 / Genotoxicity test, Without S9 rat liver extract, Rtkn, 50: GFP induction vs vehicle at 50% cytotoxicity; for Genotoxicity test, Rtkn induction level: fold induction
[2] = tested on: Bscl2-GFP; test: ToxTracker genotoxicity assay, Bscl2-GFP reporter induction; settings: for Genotoxicity test, With S9 rat liver extract, Bscl 2, 10 / Genotoxicity test, Without S9 rat liver extract, Bscl 2, 10: GFP induction vs vehicle at 10% cytotoxicity; for Genotoxicity test, With S9 rat liver extract, Bscl 2, 10 / Genotoxicity test, With S9 rat liver extract, Bscl 2, 25 / Genotoxicity test, With S9 rat liver extract, Bscl 2, 50: 3 h exposure with S9, 24 h recovery; for Genotoxicity test, Without S9 rat liver extract, Bscl 2, 10 / Genotoxicity test, Without S9 rat liver extract, Bscl 2, 25 / Genotoxicity test, Without S9 rat liver extract, Bscl 2, 50: 24 h exposure, no S9; for Genotoxicity test, With S9 rat liver extract, Bscl 2, 25 / Genotoxicity test, Without S9 rat liver extract, Bscl 2, 25: GFP induction vs vehicle at 25% cytotoxicity; for Genotoxicity test, With S9 rat liver extract, Bscl 2, 50 / Genotoxicity test, Without S9 rat liver extract, Bscl 2, 50: GFP induction vs vehicle at 50% cytotoxicity; for Genotoxicity test, Bscl 2 induction level: fold induction
[3] = with S9 rat liver extract, concentration 10 (10% cytotoxicity)
[4] = with S9 rat liver extract, concentration 25 (25% cytotoxicity)
[5] = with S9 rat liver extract, concentration 50 (50% cytotoxicity)
[6] = without S9 rat liver extract, concentration 10 (10% cytotoxicity)
[7] = without S9 rat liver extract, concentration 25 (25% cytotoxicity)
[8] = without S9 rat liver extract, concentration 50 (50% cytotoxicity)

Row | SMILES | Genotoxicity test, With S9 rat liver extract, Rtkn, 10 [1] [fold] | Genotoxicity test, Without S9 rat liver extract, Rtkn, 10 [1] [fold] | Genotoxicity test, With S9 rat liver extract, Rtkn, 25 [1] [fold] | Genotoxicity test, Without S9 rat liver extract, Rtkn, 25 [1] [fold] | Genotoxicity test, With S9 rat liver extract, Bscl 2, 10 [2] [fold] | Genotoxicity test, Without S9 rat liver extract, Bscl 2, 10 [2] [fold] | Genotoxicity test, With S9 rat liver extract, Bscl 2, 25 [2] [fold] | Genotoxicity test, Without S9 rat liver extract, Bscl 2, 25 [2] [fold] | Genotoxicity test, With S9 rat liver extract, Rtkn, 50 [1] [fold] | Genotoxicity test, Without S9 rat liver extract, Rtkn, 50 [1] [fold] | Genotoxicity test, With S9 rat liver extract, Bscl 2, 50 [2] [fold] | Genotoxicity test, Without S9 rat liver extract, Bscl 2, 50 [2] [fold] | other results
1 | CCCCOCC(CN1CC1C)OC(=O)NCCCCCCN1C(=O)N(CCCCCCNC(=O)OC(COCCCC)CN2CC2C)C1=O (stereo not drawn) [Ex. 13] | 1.4 | 1.1 | 1.6 | 1.2 | 1.2 | 1.1 | 1.2 | 1.3 | – | – | – | – | –
2 | CC(CN1CC1C)OC(=O)NC1CCC(CC2CCC(NC(=O)OC(C)CN3CC3C)CC2)CC1 (stereo not drawn) [Comp. Ex. 9, reference compound] | 1.6 | 1.5 | 2.6 | 2.2 | 1.2 | 1.2 | 1.6 | 1.6 | 3.7 | 3.3 | 2.0 | 2.2 | –
3 | CCCCOCC(CN1CC1C)OC(=O)Nc1ccc(C)c(NC(=O)OC(COCCCC)CN2CC2C)c1 (stereo not drawn) [Comp. Ex. 11, reference compound] | 1.2 | 1.3 | 2.1 | 2.1 | 1.3 | 1.2 | 1.7 | 1.6 | 2.5 | 2.3 | 1.6 | 1.9 | –
4 | CCC(CN1CC1C)OC(=O)NCCCCCCn1c(=O)n(CCCCCCNC(=O)OC(CC)CN2CC2C)c(=O)n(CCCCCCNC(=O)OC(CC)CN2CC2C)c1=O (stereo not drawn) [Ex. 7] | 1.1 | 1.1 | 1.3 | 1.3 | 1.1 | 1.1 | 1.3 | 1.1 | 1.5 | – | 1.5 | – | –
5 | CCCCOCC(CN1CC1C)OC(=O)NCCCCCCNC(=O)OC(COCCCC)CN1CC1C (stereo not drawn) [Comp. Ex. 10, reference compound] | 1.5 | 1.2 | 2.3 | 1.9 | 1.3 | 1.3 | 1.5 | 1.5 | 2.2 | 1.9 | 1.5 | 1.6 | –
6 | CCCCCCCCCC(=O)OCC(CN1CC1C)OC(=O)NC(C)(C)c1cccc(C(C)(C)NC(=O)OC(COC(=O)CCCCCCCCC)CN2CC2C)c1 (stereo not drawn) [Ex. 22] | 1.1 | 1.0 | 1.1 | 1.0 | 1.2 | 1.0 | 1.2 | 1.0 | 1.0 | 1.0 | 1.2 | 0.9 | –
7 | CCCCOCC(CN1CC1CC)OC(=O)NCCCCCCn1c(=O)n(CCCCCCNC(=O)OC(COCCCC)CN2CC2CC)c(=O)n(CCCCCCNC(=O)OC(COCCCC)CN2CC2CC)c1=O (stereo not drawn) [Ex. 32] | – | – | – | – | – | – | – | – | – | – | – | – | Genotoxicity test, Rtkn induction level [1, 3]: 1.0; Genotoxicity test, Rtkn induction level [1, 4]: 1.1; Genotoxicity test, Rtkn induction level [1, 5]: 1.1; Genotoxicity test, Rtkn induction level [1, 6]: 1.0; Genotoxicity test, Rtkn induction level [1, 7]: 1.1; Genotoxicity test, Rtkn induction level [1, 8]: 1.1; Genotoxicity test, Bscl 2 induction level [2, 3]: 1.1; Genotoxicity test, Bscl 2 induction level [2, 4]: 1.1; Genotoxicity test, Bscl 2 induction level [2, 5]: 1.1; Genotoxicity test, Bscl 2 induction level [2, 6]: 1.1; Genotoxicity test, Bscl 2 induction level [2, 7]: 1.2; Genotoxicity test, Bscl 2 induction level [2, 8]: 1.3
8 | CCCCOCC(CN1CC1C)OC(=O)NCCCCCCn1c(=O)n(CCCCCCNC(=O)OC(COCCCC)CN2CC2C)c(=O)n(CCCCCCNC(=O)OC(COCCCC)CN2CC2C)c1=O (stereo not drawn) [Ex. 14] | 0.9 | 0.8 | 0.8 | 0.8 | 1.0 | 1.1 | 1.0 | 1.1 | 0.6 | 0.6 | – | 1.1 | –
9 | CC1CN1C1CCCCC1OC(=O)NCCCCCCn1c(=O)n(CCCCCCNC(=O)OC2CCCCC2N2CC2C)c(=O)n(CCCCCCNC(=O)OC2CCCCC2N2CC2C)c1=O (stereo not drawn) [Ex. 19] | 1.2 | 1.2 | 1.3 | 1.3 | 1.1 | 1.1 | 1.2 | 1.3 | 1.3 | – | 1.2 | – | –
10 | COCCOCCOCCOCCOCCOCCOCCOCCOCCOCCOCCOCCOCCOCCOCCOCCOCCOCCOCCOCCOCCOCCOCCOCCOCCOCC(CN1CC1C)OC(=O)NCCCCCCn1c(=O)n(CCCCCCNC(=O)OC(COCCOCCOCCOCCOCCOCCOCCOCCOCCOCCOCCOCCOCCOCCOCCOCCOCCOCCOCCOCCOCCOCCOCCOCCOCCOC)CN2CC2C)c(=O)n(CCCCCCNC(=O)OC(COCCOCCOCCOCCOCCOCCOCCOCCOCCOCCOCCOCCOCCOCCOCCOCCOCCOCCOCCOCCOCCOCCOCCOCCOCCOC)CN2CC2C)c1=O (stereo not drawn) [Ex. 30] | – | – | – | – | – | – | – | – | – | – | – | – | Genotoxicity test, Rtkn induction level [1, 3]: 0.8; Genotoxicity test, Rtkn induction level [1, 4]: 0.9; Genotoxicity test, Rtkn induction level [1, 5]: 1.0; Genotoxicity test, Rtkn induction level [1, 6]: 0.9; Genotoxicity test, Rtkn induction level [1, 7]: 0.9; Genotoxicity test, Rtkn induction level [1, 8]: 1.0; Genotoxicity test, Bscl 2 induction level [2, 3]: 1.0; Genotoxicity test, Bscl 2 induction level [2, 4]: 1.5; Genotoxicity test, Bscl 2 induction level [2, 5]: 1.8; Genotoxicity test, Bscl 2 induction level [2, 6]: 1.0; Genotoxicity test, Bscl 2 induction level [2, 7]: 1.3; Genotoxicity test, Bscl 2 induction level [2, 8]: 1.6
11 | CC(CN1CC1C)OC(=O)NCCCCCCNC(=O)OC(C)CN1CC1C (stereo not drawn) [Comp. Ex. 6, reference compound] | 2.2 | 2.1 | 3.4 | 3.1 | 1.4 | 1.4 | 2.1 | 2.0 | 2.1 | 3.1 | 2.3 | 2.0 | –
12 | CC(CN1CC1C)OC(=O)NCC1(C)CC(NC(=O)OC(C)CN2CC2C)CC(C)(C)C1 (stereo not drawn) [Comp. Ex. 7, reference compound] | 1.6 | 1.6 | 2.7 | 2.5 | 1.2 | 1.2 | 1.6 | 1.6 | 3.5 | 3.8 | 1.7 | 2.4 | –
